Holding throughout (type): in vivo
For assay [1], the system named is Echinochloa crus-galli (ECHCG). The assay can be described thus: Pre-emergence herbicidal activity (B1). As to conditions: Test 1a, 1000 g/ha, evaluated after 13 days, 5=total damage to plant, 0=no damage to plant. In outline:
(§1)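 After one day of cultivation, soil pots were treated pre-emergence by spray with active ingredient in acetone/water (50:50) and 0.5% Tween 20. Evaluation at 13 days used a 0–5 scale, where 5 meant total plant damage.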

The test system of assay [2] is Setaria faberi (SETFA). Briefly: Pre-emergence herbicidal activity (B1). The conditions noted are these: Test 1a, 1000 g/ha, evaluated after 13 days, 5=total damage to plant, 0=no damage to plant. In outline:
as §1

The test system of assay [3] is Alopecurus myosuroides (ALOMY). The assay can be described thus: Pre-emergence herbicidal activity (B1). As to conditions: Test 1a, 1000 g/ha, evaluated after 13 days, 5=total damage to plant, 0=no damage to plant. In outline:
as §1

In assay [4] the test system is Avena fatua (AVEFA). The assay can be described thus: Pre-emergence herbicidal activity (B1). The conditions noted are these: Test 1a, 1000 g/ha, evaluated after 13 days, 5=total damage to plant, 0=no damage to plant. A digest of the protocol:
as §1

In assay [5] the test system is Triticum aestivium (TRZAW). The assay can be described thus: Pre-emergence herbicidal activity (B1). As to conditions: Test 1a, 1000 g/ha, evaluated after 13 days, 5=total damage to plant, 0=no damage to plant. A digest of the protocol: as §1
The test system of assay [6] is Lolium perenne (LOLPE). Briefly: Pre-emergence herbicidal activity (B1). The conditions noted are these: Test 1a, 1000 g/ha, evaluated after 13 days, 5=total damage to plant, 0=no damage to plant. In outline:
as §1

Assay [7] deals with Echinochloa crus-galli (ECHCG). The assay can be described thus: Post-emergence herbicidal activity (B2). The conditions noted are these: Test B2a, 1000 g/ha, evaluated after 13 days, 5=total damage to plant, 0=no damage to plant. In outline:
(§2)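 Scores run from 0 (no damage) to 5 (total plant damage), assessed 13 days after spraying. Seedlings had grown 8 days under controlled glasshouse conditions before treatment with an aqueous spray from an acetone/water (50:50) formulation with 0.5% Tween 20.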

The test system of assay [8] is Setaria faberi (SETFA). The assay can be described thus: Post-emergence herbicidal activity (B2). The conditions noted are these: Test B2a, 1000 g/ha, evaluated after 13 days, 5=total damage to plant, 0=no damage to plant. In outline: as §2
The subject of assay [9] is Alopecurus myosuroides (ALOMY). Briefly: Post-emergence herbicidal activity (B2). The conditions noted are these: Test B2a, 1000 g/ha, evaluated after 13 days, 5=total damage to plant, 0=no damage to plant. A digest of the protocol: as §2
In assay [10] the test system is Avena fatua (AVEFA). Briefly: Post-emergence herbicidal activity (B2). The conditions noted are these: Test B2a, 1000 g/ha, evaluated after 13 days, 5=total damage to plant, 0=no damage to plant. In outline: as §2
The test system of assay [11] is Triticum aestivium (TRZAW). The assay can be described thus: Post-emergence herbicidal activity (B2). As to conditions: Test B2a, 1000 g/ha, evaluated after 13 days, 5=total damage to plant, 0=no damage to plant. In outline: as §2
The test system of assay [12] is Lolium perenne (LOLPE). Briefly: Post-emergence herbicidal activity (B2). As to conditions: Test B2a, 1000 g/ha, evaluated after 13 days, 5=total damage to plant, 0=no damage to plant. A digest of the protocol: as §2

Data on four compounds can be found in patent US10986838B2, “Herbicides” (SYNGENTA PARTICIPATIONS AG, priority 2016, dated 2021).

Structures are written as SMILES.

As for `Fc1cncc(-c2ccc(N3CCCC3)c(C(F)(F)F)n2)c1` [Compound A40], the ECHCG damage score in assay [1] is reported as 4; in assay [7], 5. For the same compound, the SETFA damage score with Setaria faberi (SETFA) [2] was found to be 4; with Setaria faberi (SETFA) [8], 5. The ALOMY damage score is listed as 1 in assay [3] and 0 in [9]. The AVEFA damage score in the assay with Avena fatua (AVEFA) [4] was found to be 1; in the assay on Avena fatua (AVEFA) [10], 3. The TRAZW damage score in assay [5] and in assay [11] was 0 each time. Also, the results for the LOLPE damage score with Lolium perenne (LOLPE) [6] and in the assay on Lolium perenne (LOLPE) [12] were 1 and 2, respectively.

As for `Fc1cncc(-c2ccc(N3CCCC3C(F)(F)F)c(C(F)(F)F)n2)c1` (stereo not drawn) [Compound A64], the figures for the ECHCG damage score in assay [1] and in assay [7] were 1 and 2, respectively. The SETFA damage score was determined as 1 in the assay with Setaria faberi (SETFA) [2] and 4 in the assay on Setaria faberi (SETFA) [8]. For the same compound, the ALOMY damage score in assay [3] and in [9] was 0 each time. In addition, the figures for the AVEFA damage score in the assay with Avena fatua (AVEFA) [4] and in the assay on Avena fatua (AVEFA) [10] were 0 and 1, respectively. Also, the TRAZW damage score in assay [5] and in assay [11] was 0 each time. The LOLPE damage score in the assay on Lolium perenne (LOLPE) [6] and with Lolium perenne (LOLPE) [12] was 0 throughout.

As for `N#Cc1nc(-c2cncnc2)ccc1N` [Compound A44], the ECHCG damage score in [1] and in assay [7] was 3 in each case. For the same compound, the SETFA damage score turned out to be 5 with Setaria faberi (SETFA) [2] and 4 in the assay with Setaria faberi (SETFA) [8]. Also, the ALOMY damage score in assay [3] and in assay [9] was 0 throughout. The AVEFA damage score was 1 in the assay with Avena fatua (AVEFA) [4] and 2 in the assay with Avena fatua (AVEFA) [10]. Further, the TRAZW damage score in assay [5] and in assay [11] was 0 each time. Also, the LOLPE damage score in the assay on Lolium perenne (LOLPE) [6] is 2; in the assay with Lolium perenne (LOLPE) [12] it was 1.

For the compound `Fc1cncc(-c2ccc(NC3CC3)c(C(F)(F)F)n2)c1` [Compound A46], the ECHCG damage score in assay [1] is recorded as 2; in assay [7], 4. Moreover, the SETFA damage score in the assay with Setaria faberi (SETFA) [2] and in the assay with Setaria faberi (SETFA) [8] was 4 in each case. Also, the ALOMY damage score in assay [3] was found to be 0; in assay [9], 1. The AVEFA damage score with Avena fatua (AVEFA) [4] worked out at 1; with Avena fatua (AVEFA) [10], 3. For the same compound, the values for the TRAZW damage score in assay [5] and in [11] were 0 and 1, respectively. Also, the results for the LOLPE damage score with Lolium perenne (LOLPE) [6] and in the assay on Lolium perenne (LOLPE) [12] were 0 and 2, respectively.
